Experimental data reported in patent US20260258035A1, “FIVE-MEMBERED AND SIX-MEMBERED NITROGEN-CONTAINING COMPOUND, AND INTERMEDIATE, PREPARATION METHOD AND USE THEREOF” (HANGZHOU SYNRX THERAPEUTICS BIOMEDICAL TECHNOLOGY CO., LTD., priority 2022, published 2026).
Read-outs that look alike come from different tables or passages of the source.

Legend:
HCC1806 = test: Cell viability assay (CellTiter-Glo); type: cell-based, Human; conditions: HCC1806, 7 days, CellTiter-Glo, read-out: IC50 (nM) in cell viability assay
PARG = PARG (Homo sapiens, UniProt Q86W56); test: Biochemical assay (PARG, TFMU-ADPr substrate)
[1] = 4 nM PARG, 66.2 uM TFMU-ADPr, 3 min at room temperature

PARG, sequence (Q86W56 whole entry): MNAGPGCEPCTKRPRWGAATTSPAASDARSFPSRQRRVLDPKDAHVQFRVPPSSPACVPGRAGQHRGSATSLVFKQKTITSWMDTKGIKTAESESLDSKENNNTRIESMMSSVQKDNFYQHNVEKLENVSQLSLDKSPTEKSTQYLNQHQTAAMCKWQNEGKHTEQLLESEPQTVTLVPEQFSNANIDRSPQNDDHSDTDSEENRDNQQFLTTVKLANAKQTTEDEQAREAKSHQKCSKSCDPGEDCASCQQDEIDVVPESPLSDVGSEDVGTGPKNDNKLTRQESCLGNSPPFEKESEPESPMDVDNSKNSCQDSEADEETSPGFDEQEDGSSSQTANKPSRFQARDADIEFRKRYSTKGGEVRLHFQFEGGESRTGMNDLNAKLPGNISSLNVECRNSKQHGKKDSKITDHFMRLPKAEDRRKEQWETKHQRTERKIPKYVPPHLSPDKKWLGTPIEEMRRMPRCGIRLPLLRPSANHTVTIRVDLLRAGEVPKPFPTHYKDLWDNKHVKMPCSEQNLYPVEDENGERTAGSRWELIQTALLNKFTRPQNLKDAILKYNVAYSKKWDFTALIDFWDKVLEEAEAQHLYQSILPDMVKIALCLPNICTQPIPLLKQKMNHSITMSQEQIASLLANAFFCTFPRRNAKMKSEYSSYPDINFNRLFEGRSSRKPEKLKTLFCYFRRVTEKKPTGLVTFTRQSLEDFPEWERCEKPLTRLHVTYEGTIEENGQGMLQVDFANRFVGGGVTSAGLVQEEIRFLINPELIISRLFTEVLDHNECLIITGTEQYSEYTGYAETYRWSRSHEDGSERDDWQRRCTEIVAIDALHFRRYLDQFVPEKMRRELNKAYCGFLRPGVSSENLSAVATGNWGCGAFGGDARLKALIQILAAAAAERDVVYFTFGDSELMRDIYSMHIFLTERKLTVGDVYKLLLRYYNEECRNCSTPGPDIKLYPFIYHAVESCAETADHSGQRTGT

SMILES: CC1(NS(=O)(=O)c2cc(N3CCC(O)CC3)c3cnc(-c4nnc(C(F)F)s4)n3c2)CC1 [Example 305, 3-(5-(difluoromethyl)-1,3,4-thiadiazol-2-yl)-8-(4-hydroxypiperidin-1-yl)-N-(1-methylcyclopropyl)imidazo[1,5-a]pyridine-6-sulfonamide]
- IC50 (HCC1806; Homo sapiens, HCC1806, 168 h): 130 nM
- IC50 (PARG; PARG, TFMU-ADPr substrate): 6.91 nM

SMILES: CC1(NS(=O)(=O)c2cc(N3CCN[C@@H](CO)C3)c3cnc(-c4nnc(C(F)F)s4)n3c2)COC1 [Example 178, (R)-3-(5-(difluoromethyl)-1,3,4-thiadiazol-2-yl)-8-(3-(hydroxymethyl)piperazin-1-yl)-N-(3-methyloxetan-3-yl)imidazo[1,5-a]pyridine-6-sulfonamide]
- IC50 (HCC1806; Homo sapiens, HCC1806, 168 h): 945 nM
- IC50 (PARG; PARG, TFMU-ADPr substrate): 1.18 nM

SMILES: N#CC1(NS(=O)(=O)c2cc(N3CCN(C(=O)c4ccn[nH]4)CC3)c3cnc(-c4nnc(C(F)(F)F)s4)n3c2)CC1 [Example 235, 8-(4-(1H-pyrazole-5-carbonyl)piperazin-1-yl)-N-(1-cyanocyclopropyl)-3-(5-(trifluoromethyl)-1,3,4-thiadiazol-2-yl)imidazo[1,5-a]pyridine-6-sulfonamide]
- IC50 (HCC1806; Homo sapiens, HCC1806, 168 h): 4940 nM
- IC50 (PARG; PARG, TFMU-ADPr substrate): 4.37 nM

SMILES: C[C@H]1CN(c2cc(S(=O)(=O)NC3(C)COC3)cn3c(-c4nnc(C(F)(F)F)s4)nc(Cl)c23)C[C@H](C)N1 [Example 125, 1-chloro-8-((3S,5S)-3,5-dimethylpiperazin-1-yl)-N-(3-methyloxetan-3-yl)-3-(5-(trifluoromethyl)-1,3,4-thiadiazol-2-yl)imidazo[1,5-a]pyridine-6-sulfonamide]
- IC50 (HCC1806; Homo sapiens, HCC1806, 168 h): 518 nM
- IC50 (PARG; PARG, TFMU-ADPr substrate): 31.2 nM

SMILES: N#CC1(NS(=O)(=O)c2cc(C3CCN(C(=O)C4(O)CC4)CC3)c3cnc(-c4nnc(C(F)(F)F)s4)n3c2)CC1 [Example 372, N-(1-cyanocyclopropyl)-8-(1-(1-hydroxycyclopropane-1-carbonyl)piperidin-4-yl)-3-(5-(trifluoromethyl)-1,3,4-thiadiazol-2-yl)imidazo[1,5-a]pyridine-6-sulfonamide]
- IC50 (HCC1806; Homo sapiens, HCC1806, 168 h): 580 nM
- IC50 (PARG; PARG, TFMU-ADPr substrate): 3.8 nM

SMILES: CC(C)C(=O)N1CCN(c2cc(S(=O)(=O)NC3(C)CC3)cn3c(-c4nnc(C(F)(F)F)s4)nc(C#N)c23)CC1 [Example 164, 1-cyano-8-(4-isobutyrylpiperazin-1-yl)-N-(1-methylcyclopropyl)-3-(5-(trifluoromethyl)-1,3,4-thiadiazol-2-yl)imidazo[1,5-a]pyridine-6-sulfonamide]
- IC50 (HCC1806; Homo sapiens, HCC1806, 168 h): 100 nM
- IC50 (PARG; PARG, TFMU-ADPr substrate): 3.31 nM

SMILES: COC(C)C(=O)N1CCN(c2cc(S(=O)(=O)NC3(C)CC3)cn3c(-c4nnc(C(F)(F)F)s4)ncc23)CC1 (stereo not shown) [Example 328, 8-(4-(2-methoxypropanoyl)piperazin-1-yl)-N-(1-methylcyclopropyl)-3-(5-(trifluoromethyl)-1,3,4-thiadiazol-2-yl)imidazo[1,5-a]pyridine-6-sulfonamide]
- IC50 (HCC1806; Homo sapiens, HCC1806, 168 h): 55.6 nM
- IC50 (PARG; PARG, TFMU-ADPr substrate): 1.21 nM

SMILES: Cn1nccc1C1C=C(c2cc(S(=O)(=O)NC3(C#N)CC3)cn3c(-c4nnc(C(F)F)s4)nnc23)CC1 (stereo not shown) [Example 367, N-(1-cyanocyclopropyl)-3-(5-(difluoromethyl)-1,3,4-thiadiazol-2-yl)-8-(3-(1-methyl-1H-pyrazol-5-yl)cyclopent-1-en-1-yl)-[1,2,4]triazolo[4,3-a]pyridine-6-sulfonamide]
- IC50 (HCC1806): 6780 nM
- IC50 (HCC1806; Homo sapiens, HCC1806, 168 h): 5000 to 30000 nM
- IC50 (PARG; [1]): < 100 nM
- IC50 (PARG; PARG, TFMU-ADPr substrate): 32.8 nM

SMILES: CN1CC(F)(C(=O)N2CCN(c3cc(S(=O)(=O)NC4(C)CC4)cn4c(-c5nnc(C(F)(F)F)s5)ncc34)CC2)C1 [Example 322, 8-(4-(3-fluoro-1-methylazetidine-3-carbonyl)piperazin-1-yl)-N-(1-methylcyclopropyl)-3-(5-(trifluoromethyl)-1,3,4-thiadiazol-2-yl)imidazo[1,5-a]pyridine-6-sulfonamide]
- IC50 (HCC1806; Homo sapiens, HCC1806, 168 h): 334 nM
- IC50 (PARG; PARG, TFMU-ADPr substrate): 16.5 nM

SMILES: CC1(C(=O)N2CCN(c3cc(S(=O)(=O)NC4(C#N)CC4)cn4c(-c5nnc(C(F)F)s5)ncc34)CC23CC3)CC1 [Example 91, N-(1-cyanocyclopropyl)-3-(5-(difluoromethyl)-1,3,4-thiadiazol-2-yl)-8-(4-(1-methylcyclopropane-1-carbonyl)-4,7-diazaspiro[2.5]octan-7-yl)imidazo[1,5-a]pyridine-6-sulfonamide]
- IC50 (HCC1806): 264 nM
- IC50 (HCC1806; Homo sapiens, HCC1806, 168 h): < 500 nM
- IC50 (PARG; [1]): < 100 nM
- IC50 (PARG; PARG, TFMU-ADPr substrate): 31.6 nM

SMILES: N#CC1(NS(=O)(=O)c2ccc3c(C4=CC5(CC4)CN(C(=O)C4CC4(F)F)C5)nc(-c4nnc(C(F)(F)F)s4)n3c2)CC1 (stereo not shown) [Example 232, N-(1-cyanocyclopropyl)-1-(2-(2,2-difluorocyclopropane-1-carbonyl)-2-azaspiro[3.4]oct-5-en-6-yl)-3-(5-(trifluoromethyl)-1,3,4-thiadiazol-2-yl)imidazo[1,5-a]pyridine-6-sulfonamide]
- IC50 (HCC1806; Homo sapiens, HCC1806, 168 h): 953 nM
- IC50 (PARG; PARG, TFMU-ADPr substrate): 31.6 nM

SMILES: CC1(NS(=O)(=O)c2cc(N3CCN(C(=O)C4(CO)CC4)CC3)c3cnc(-c4nnc(C(F)(F)F)s4)n3c2)CC1 [Example 345, 8-(4-(1-(hydroxymethyl)cyclopropane-1-carbonyl)piperazin-1-yl)-N-(1-methylcyclopropyl)-3-(5-(trifluoromethyl)-1,3,4-thiadiazol-2-yl)imidazo[1,5-a]pyridine-6-sulfonamide]
- IC50 (HCC1806; Homo sapiens, HCC1806, 168 h): 374 nM
- IC50 (PARG; PARG, TFMU-ADPr substrate): 5.01 nM

SMILES: CC(C)C(=O)NC1CCN(c2cc(S(=O)(=O)NC3(C#N)CC3)cn3c(-c4nnc(C(F)(F)F)s4)ncc23)CC1 [Example 268, N-(1-(6-(N-(1-cyanocyclopropyl)sulfamoyl)-3-(5-(trifluoromethyl)-1,3,4-thiadiazol-2-yl)imidazo[1,5-a]pyridin-8-yl)piperidin-4-yl)isobutyramide]
- IC50 (HCC1806; Homo sapiens, HCC1806, 168 h): 2210 nM
- IC50 (PARG; PARG, TFMU-ADPr substrate): 100 nM

SMILES: CC1(NS(=O)(=O)c2cc(N3CCN(C(=O)C4(C)CNC4)CC3)c3cnc(-c4nnc(C(F)(F)F)s4)n3c2)CC1 [Example 313, 8-(4-(3-methylazetidine-3-carbonyl)piperazin-1-yl)-N-(1-methylcyclopropyl)-3-(5-(trifluoromethyl)-1,3,4-thiadiazol-2-yl)imidazo[1,5-a]pyridine-6-sulfonamide]
- IC50 (HCC1806; Homo sapiens, HCC1806, 168 h): 2050 nM
- IC50 (PARG; PARG, TFMU-ADPr substrate): 1.64 nM

SMILES: N#CC1(NS(=O)(=O)c2cc(N3CC[C@@H](O)C3)c3cnc(-c4nnc(C(F)(F)F)s4)n3c2)CC1 [Example 230, (R)-N-(1-cyanocyclopropyl)-8-(3-hydroxypyrrolidin-1-yl)-3-(5-(trifluoromethyl)-1,3,4-thiadiazol-2-yl)imidazo[1,5-a]pyridine-6-sulfonamide]
- IC50 (HCC1806; Homo sapiens, HCC1806, 168 h): 8000 nM
- IC50 (PARG; PARG, TFMU-ADPr substrate): 120 nM

SMILES: CC1(NS(=O)(=O)c2cc(N3CCN(C(=O)C4CCOC4)CC3)c3cnc(-c4nnc(C(F)(F)F)s4)n3c2)CC1 (stereo not shown) [Example 293, N-(1-methylcyclopropyl)-8-(4-(tetrahydrofuran-3-carbonyl)piperazin-1-yl)-3-(5-(trifluoromethyl)-1,3,4-thiadiazol-2-yl)imidazo[1,5-a]pyridine-6-sulfonamide]
- IC50 (HCC1806; Homo sapiens, HCC1806, 168 h): 97 nM
- IC50 (PARG; PARG, TFMU-ADPr substrate): 9.12 nM

SMILES: Cc1nc(-c2nnc(C(F)F)s2)n2cc(S(=O)(=O)NC3(C)COC3)cc(N3CCC4(CC3)COC4)c12 [Example 169, 3-(5-(difluoromethyl)-1,3,4-thiadiazol-2-yl)-1-methyl-N-(3-methyloxetan-3-yl)-8-(2-oxa-7-azaspiro[3.5]nonan-7-yl)imidazo[1,5-a]pyridine-6-sulfonamide]
- IC50 (HCC1806; Homo sapiens, HCC1806, 168 h): 27 nM
- IC50 (PARG; PARG, TFMU-ADPr substrate): 1.82 nM

SMILES: CC1(C(=O)N2CC3CCC2CN3c2cc(S(=O)(=O)NC3(C#N)CC3)cn3c(-c4nnc(C(F)F)s4)ncc23)CC1 (stereo not shown) [Example 92, N-(1-cyanocyclopropyl)-3-(5-(difluoromethyl)-1,3,4-thiadiazol-2-yl)-8-(5-(1-methylcyclopropane-1-carbonyl)-2,5-diazabicyclo[2.2.2]octan-2-yl)imidazo[1,5-a]pyridine-6-sulfonamide]
- IC50 (HCC1806): 974 nM
- IC50 (HCC1806; Homo sapiens, HCC1806, 168 h): 500 to 5000 nM
- IC50 (PARG; [1]): < 100 nM
- IC50 (PARG; PARG, TFMU-ADPr substrate): 27.5 nM

SMILES: CN1CC(C)(C(=O)N2CCN(c3cc(S(=O)(=O)NC4(C)CC4)cn4c(-c5nnc(C(F)(F)F)s5)ncc34)CC2)C1 [Example 314, 8-(4-(1,3-dimethylazetidine-3-carbonyl)piperazin-1-yl)-N-(1-methylcyclopropyl)-3-(5-(trifluoromethyl)-1,3,4-thiadiazol-2-yl)imidazo[1,5-a]pyridine-6-sulfonamide]
- IC50 (HCC1806; Homo sapiens, HCC1806, 168 h): 241 nM
- IC50 (PARG; PARG, TFMU-ADPr substrate): 0.68 nM

SMILES: CC1(NS(=O)(=O)c2cc(N3CCN(C(=O)[C@H]4CC(F)(F)CN4)CC3)c3cnc(-c4nnc(C(F)(F)F)s4)n3c2)CC1 [Example 352, (R)-8-(4-(4,4-difluoropyrrolidine-2-carbonyl)piperazin-1-yl)-N-(1-methylcyclopropyl)-3-(5-(trifluoromethyl)-1,3,4-thiadiazol-2-yl)imidazo[1,5-a]pyridine-6-sulfonamide]
- IC50 (HCC1806; Homo sapiens, HCC1806, 168 h): 561 nM
- IC50 (PARG; PARG, TFMU-ADPr substrate): 15.3 nM

SMILES: C[C@H]1CN(c2cc(S(=O)(=O)NC3(C)COC3)cn3c(-c4nnc(C(F)F)s4)nc(Cl)c23)C[C@H](C)N1 [Example 126, 1-chloro-3-(5-(difluoromethyl)-1,3,4-thiadiazol-2-yl)-8-((3S,5S)-3,5-dimethylpiperazin-1-yl)-N-(3-methyloxetan-3-yl)imidazo[1,5-a]pyridine-6-sulfonamide]
- IC50 (HCC1806; Homo sapiens, HCC1806, 168 h): 602 nM
- IC50 (PARG; PARG, TFMU-ADPr substrate): 5.34 nM

SMILES: CC1(NS(=O)(=O)c2cc(N3CCN(C(=O)c4ccc5c(c4)OCO5)CC3)c3cnc(-c4nnc(C(F)(F)F)s4)n3c2)CC1 [Example 307, 8-(4-(benzo[d][1,3]dioxole-5-carbonyl)piperazin-1-yl)-N-(1-methylcyclopropyl)-3-(5-(trifluoromethyl)-1,3,4-thiadiazol-2-yl)imidazo[1,5-a]pyridine-6-sulfonamide]
- IC50 (HCC1806; Homo sapiens, HCC1806, 168 h): 540 nM
- IC50 (PARG; PARG, TFMU-ADPr substrate): 4.13 nM

SMILES: C[C@H]1CN(c2cc(S(=O)(=O)NC3(C)COC3)cn3c(-c4nnc(C(F)F)s4)nc(Cl)c23)C[C@H](CO)N1 [Example 402, 1-chloro-3-(5-(difluoromethyl)-1,3,4-thiadiazol-2-yl)-8-((3R,5S)-3-(hydroxymethyl)-5-methylpiperazin-1-yl)-N-(3-methyloxetan-3-yl)imidazo[1,5-a]pyridine-6-sulfonamide]
- IC50 (HCC1806; Homo sapiens, HCC1806, 168 h): 1840 nM
- IC50 (PARG; PARG, TFMU-ADPr substrate): 20.9 nM
